Experiment [1] deals with T1, OBP14 (odorant binding protein 14) (Apis mellifera, UniProt A0A8U0WQC3).
T1 construct: recombinant, bacterial expression, purified by chromatography and Superose-12 gel filtration; covalently immobilized via PBSE linker on rGO FET gate
T1 sequence (A0A8U0WQC3 17-135): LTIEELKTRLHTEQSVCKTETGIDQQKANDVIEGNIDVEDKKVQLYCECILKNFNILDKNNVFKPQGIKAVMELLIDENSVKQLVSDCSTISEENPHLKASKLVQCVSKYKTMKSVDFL
Briefly: rGO-FET biosensor, shift of ISD-vs-VG curves with ligand concentration. To be noted: protein covalently immobilized via PBSE on rGO gate; liquid gate, VSD = 50 mV.

Experiment [2] deals with T1, OBP14 (odorant binding protein 14). Briefly: rGO-FET biosensor, equilibrium titration, Langmuir isotherm. The conditions noted are these: protein covalently immobilized via PBSE on rGO gate; aqueous solution; titration determination.
Experiment [3] has the same target. Briefly: rGO-FET biosensor, real-time kinetics (koff/kon), source-drain current.

Usually Kd stands for a measure of binding affinity in units of concentration. A lower Kd goes with higher affinity.

For the compound `C=CCc1ccc(O)c(OC)c1` [Eugenol], the “rGO-FET biosensor, shift of ISD-vs-VG curves with ligand concentration” value in experiment [1] is recorded as “OBP14 functionalized rGO FET-biosensor device at different Eugenol concentrations”.
As for `COc1cc(CC(=O)O)ccc1O` [homovanillic acid], the KA in experiment [2] is 2.5 × 10^5. The compound also displayed a Kd in experiment [3] of 7.1 µM.

For the origin of these results see PMC4931477, “Electronic Biosensing with Functionalized rGO FETs” (Biosensors, 2016).
